In one assay the test system is EGR1. Nature of the assay: Western blotting of EGR1 expression. It is filed as cell-based, human. Particulars: BAY-treated tumor cells relative to control. The text has this:
A wide range of enriched biological processes were detected upon genetic loss of DHODH, including myogenic differentiation, apoptosis, DNA damage response and signaling via tumor necrosis factor α (TNFα).
Protein lysates were isolated from approximately 500,000-1,000,000 cells. Pellets were rinsed with PBS and then lysed in RIPA buffer containing HALT™ protease inhibitor cocktail (ThermoFisher). Protein concentrations were quantified using the Bradford Assay (BioRad). Protein size was resolved via SDS-PAGE and then transferred to PVDF for immunoblotting. Rabbit polyclonal anti-DHODH (Cell Signaling Technologies; catalogue #80981), rabbit monoclonal anti-EGR1 (Cell Signaling Technologies; catalogue #4145), rabbit polyclonal anti-phospho-ERK1/2 Thr202/Tyr204 (Cell Signaling Technologies; catalogue #9101), rabbit monoclonal anti-phospho-4E-BP1 Thr37/46 (Cell Signaling Technologies; catalogue #2855) were used at a 1:1000 dilution. Mouse monoclonal anti-GAPDH (Abcam; catalogue #ab8245) was used at a 1:5000 dilution. For development, horse-radish peroxidase-conjugated secondary anti-mouse (BioRad; catalogue #1706516) and anti-rabbit antibodies (BioRad; catalogue #1706515) were used with BioRad Clarity ECL reagents. Quantification was performed by analyzing mean pixel density of each band and then normalizing to GAPDH loading control. […]
For orientation: Immunoblotting shows a protein as a band on a membrane.

Assay [1] has as its system ERK1/2, c-Jun and 4EBP1 phosphorylation in SU_MB002 cells. Nature of the assay: Phosphokinome proteome profiler array and time-course Western blotting. It is filed as cell-based, human. The method, then:
To identify signaling changes accompanying DHODH inhibition in an unbiased fashion, changes in the phosphokinome of SU_MB002 cells were measured after treatment with BAY. […] Time-course Western blotting confirmed that ERK1/2 becomes phosphorylated within 24 h of BAY treatment, peaks at 48 h, and then decreases in expression at 72 h (FIG. 3I-J). […] These findings corroborated previous work that had implicated ERK1/2 silencing of mTORC1-mediated translation in activating apoptosis in cancer cells under severe metabolic stress^38. Indeed, both pharmacological inhibition or DHODH KO in G3MB-MYC induced both Go cell cycle arrest, determined via propidium iodide assessment of DNA content, (FIG. 3K, FIG. 8N) and apoptosis, determined via cleaved caspase 3 expression (FIG. 3I-J, FIG. 8M) and Annexin V staining (FIG. 3L, FIG. 8O). Such findings were also consistent with the enrichment of the hallmark apoptosis gene set in DHODH KO SU_MB002 cells (FIG. 3G). […] Pyrimidine starvation induces a metabolic stress response, which activates ERK1/2-mediated signaling, leading to suppression of mTORC1 activity, and initiation of apoptosis.
Protein lysates were isolated from approximately 500,000-1,000,000 cells. Pellets were rinsed with PBS and then lysed in RIPA buffer containing HALT™ protease inhibitor cocktail (ThermoFisher). Protein concentrations were quantified using the Bradford Assay (BioRad). Protein size was resolved via SDS-PAGE and then transferred to PVDF for immunoblotting. Rabbit polyclonal anti-DHODH (Cell Signaling Technologies; catalogue #80981), rabbit monoclonal anti-EGR1 (Cell Signaling Technologies; catalogue #4145), rabbit polyclonal anti-phospho-ERK1/2 Thr202/Tyr204 (Cell Signaling Technologies; catalogue #9101), rabbit monoclonal anti-phospho-4E-BP1 Thr37/46 (Cell Signaling Technologies; catalogue #2855) were used at a 1:1000 dilution. Mouse monoclonal anti-GAPDH (Abcam; catalogue #ab8245) was used at a 1:5000 dilution. For development, horse-radish peroxidase-conjugated secondary anti-mouse (BioRad; catalogue #1706516) and anti-rabbit antibodies (BioRad; catalogue #1706515) were used with BioRad Clarity ECL reagents. Quantification was performed by analyzing mean pixel density of each band and then normalizing to GAPDH loading control. The proteome profiler array was obtained from R&D systems (catalogue ARY003C) and performed according to manufacturing guidelines, using 400 μg cellular lysate for each sample.

[2] abbreviates: SU_MB002, BAY-treated vs vehicle, 48 h.
[3] abbreviates: SU_MB002, time-course Western blotting.

Structures are written as SMILES. Bounds are passed on as bounds.

As to `CCn1c(CO)nn(-c2cc(O[C@@H](C)C(F)(F)F)c(C(=O)Nc3c(F)cccc3Cl)cc2F)c1=O` [BAY2402234], the EGR1 protein expression result in the assay with EGR1 is listed as “upregulated at the protein level”. Moreover, in assay [1] (setting [2]), the “phosphorylation of ERK1/2 (T202/Y204; T185/Y187)” value was “Increased phosphorylation” and the “phosphorylation of c-Jun (S63)” value is “Increased phosphorylation”. In assay [1] (setting [3]), the “time of peak ERK1/2 phosphorylation” value was found to be 48 h and the “time until ERK1/2 becomes phosphorylated” value was not above 24 h. For the same compound, the “phosphorylation of 4EBP1” value in assay [1] (time-course BAY treatment) is listed as “decreased in a time-dependent fashion”.
